Laboratory results published in EP0926242A1, “GLIOTOXIN DERIVATIVES AND ANTICANCER AGENT COMPRISING THE SAME” (priority 1996, dated 1998).
≈ marks a conversion by molar mass, not a printed value. Read-outs that look alike come from different tables or passages of the source.

How the values were obtained:
[1] = tested on: Human carcinoma of the colon cell strain HCT-116; test: Tertiary culture using test human cancer, killed cells by MTT method; assay type: cell-based; settings: incubated 3 days
Protocol: Tertiary cultures were carried out using a human carcinoma of the colon tissue in stage 2b. The tertiary cultures were carried out according to the reported method (Int.J.Cancer Res., 82, 607-612 (1991), Gan to Kagakuryoho, 18, 239-243 (1991), Gan to Kagakuryoho, 19, 743-748 (1992)). The extracted tissue of carninoma of the colon was cut into square pieces having a side of about 2 mm, and incubated in a RPMI- 1640 medium containing 10 % fetal calf serum under 5 % CO2 at 37 °C for 3 days. Existing anticancer agents or acetylgliotoxin were diluted and added, and further incubated for 3 days. Then, the rate of killed cells was determined by the MTT method. The tertiary cultures using the test human cancer were carried out as follows: Human carcinoma of the colon cell strain HCT-116 was transplanted into the subcutaneous tissue of a nude mouse (Balb nu/nu) to induce tumor. The cancer tissue was extracted from the tumor-induced portion, and cut into square pieces having a side of 2 mm. The evaluation of the existing anticancer agents and acetylyliotoxin was earried out according to the aforementioned method.

[2] = tested on: mouse carcinoma of the colon cells colon 26; test: Anticancer effect in vivo against colon 26 (Example 9 A); settings: CDFI mice
Protocol: (§1) • (A) Evaluationin vivo using mouse carcinoma of the colon cells colon 26 CDFI mice (female : 4 weks age) were bought, and colon 26 subcultured in the subcutaneous tissue of the mouse was taken out, and cut into small pieces by a scissors. The cancer cells were transplanted into subcutaneous tisue of CDFI mice by a trucker. The day was assigned 0 day, and the tumor was measured by a slide caliper after 7 days. The volume of the tumor was calculated, and divided into groups (each group : n = 4). The text compound was dissolved in dimethylsulfoxide, and diluted with 5 % Tween 80- saline aqueous solution. […] The administration was carried out after 7 days, after 11 days and after 15 days or after 7 days and after 8 days from the transplantation at a rate of once per one day. 21st day from the transplantation, the volume of tumor was measured and the volume of tumor and the inhibition against tumor multiplication rate (I.R.) were calculated. The volume of tumor was calculated by the following formula. (Tumore Volume [mm)^3 (]= Minor Axis [mm])^2 × Major Axis [mm] × (1/2) [formula] • The inhibition against tumor multiplication rate (I.R.) was calculated by the following formula. I.R. [%] = {1- (Average Tumor Volume of Administration Group / Average Tumor Volume of Control Group)) × 100 [formula] • (B) Evaluation in vivo using human carcinoma of the colon cells HCT-116 Balb/c nu/nu mice (female : 5 weks age) were bought, and HCT-116 (Dainippon Seiyaku) subcultured in the subcutaneous tissue of the mouse was taken out, and cut into small pieces by a scissors. The cancer cells were transplanted into subcutaneous tissue of […] mice by a trucker. The day was assigned 0 day, and the tumor was measured by a slide caliper after 7 days. The volume of the tumor was calculated, and divided into groups (each group : n = 2). The text compound was dissolved in dimethylsulfoxide, and diluted with 5 % Tween 80- saline aqueous solution. […] The administration was carried out after 7 days, after 11 days and after 15 days from the transplantation at a rate of once per one day. 21st day from the transplantation, the volume of tumor was measured and the volume of tumor and the inhibition against tumor multiplication rate (I.R.) were calculated by the above formulas.

[3] = tested on: human carcinoma of the colon cells HCT-116; test: Anticancer effect in vivo against HCT 116 (Example 9 B); parameters: species or system mouse; settings: 5 [mg/kg]×3 (i.p.), 7,11,15th days, Balb/c nu/nu mice
Protocol: as §1

[4] = tested on: mouse carcinoma of the colon cells colon 26; test: Evaluation of cytotoxity of synthesized derivatives by the MTT method (Example 8); assay type: cell-based; settings: for IC50: Mus musculus
Protocol: (§2) Antitumor activity of the synthesized derivatives against various cancer cells was measured by the MTT method. The cancer cells used were mouse carcinoma of the colon cells colon 26 (Gan Kenkyu-sho, Gan Kenkyu-kai) and mouse leukemia cells P388 (Dai-Nippon Seiyaku), and the culture medium contained 10 % fetal calf serum. Each cells were placed in each well of 96 well microplate n an amount of […]/50 µL/well and 50 µL of a test compound aqueous solution in each concentration was added. After incubating at 37 °C for 3 days, the number of survival cells was measured by the MTT method, and a dose-reaction curve was made. Thereby, the concentration of each test compound inhibiting multiplication at a rate of 50 % (IC50) was calculated.

[5] = tested on: mouse leukemia cells P388; test: as above; assay type: cell-based; settings: for IC50: Mus musculus, read-out: P388 IC50[ng/mL]
Protocol: as §2

[6] = 10 [mg/kg]×2 (i.v.), 7, 14th days
[7] = 72 h, colon 26, 3 days, MTT, read-out: colon 26 IC 50
[8] = 2.5[mg/kg]×3 (i.p.), 7,11,15th days
[9] = 5 [mg/kg]×3 (i.p.), 7,11,15th days
[10] = 10 [mg/kg]×2 (i.p.), 7,8th days

O=c1[nH]cc(F)c(=O)[nH]1 [5-F U, 5-Fluorouracil]
I. R. (%) ([1]; conc. 500 ug/mL): 38%

COc1cccc2c1C(=O)c1c(O)c3c(c(O)c1C2=O)C[C@@](O)(C(=O)CO)C[C@@H]3O[C@H]1C[C@H](N)[C@H](O)[C@H](C)O1 [Adriamycin, reference compound]
I. R. (%) ([1]; conc. 6 ug/mL): 0% | I.R. (21st day) [2, 6]: 38.9% | I.R.Max [2, 6]: 38.9%

[NH2][Pt]([NH2])([Cl])[Cl] [CDDP, Cisplatin, reference compound]
I. R. (%) ([1]; conc. 25 ug/mL): 6% | I.R. (21st day) [3]: 15.6% | I.R.Max [3]: 47.5%

CN1C(=O)[C@]23Cc4ccccc4N2C(=O)[C@]1(CO)SS3 [Compound of Example 3, (3S, 10aR)―2,3-dihydro―3―(hydroxymethyl)―2― methyl―10H―3,10a―epidithiopyrazino[1,2―a]indole― 1,4―dione]
IC50 [4, 7]: 58 ng/mL (≈ 0.188 µM) | IC50 ([5]; 72 h, P388, 3 days, MTT): 3.2 ng/mL (≈ 0.0104 µM) | I.R. (21st day) [2, 8]: 35.2% | I.R.Max [2, 8]: 35.3% | I.R. (21st day) [2, 9]: 43.7% | I.R.Max [2, 9]: 51.6%

CN1C(=O)[C@]23Cc4cccc(O)c4N2C(=O)[C@]1(CO)SS3 [Compound of Example 4, (3S, 10aR)―2,3―dihydro―6―hydroxy―3―(hydroxymethyl)― 2―methyl―10H―3,10a―epidithiopyrazino[1,2―a]indole― 1,4―dione]
IC50 ([4]; Colon 26, 72 h, read-out: colon 26 IC 50 [ng/mL]): 110 ng/mL (≈ 0.339 µM) | IC50 ([5]; P388, 72 h): 21 ng/mL (≈ 0.0647 µM) | I.R. (21st day) [2, 8]: 40.1% | I.R.Max [2, 8]: 54.5% | I.R. (21st day) [2, 9]: 52.9% | I.R.Max [2, 9]: 58.9% | I.R. (21st day) [2, 10]: 43.5% | I.R.Max [2, 10]: 79.8% | I.R. (21st day) [3]: 63.8% | I.R.Max [3]: 66.5%

CC(=O)Oc1cccc2c1N1C(=O)[C@]3(CO)SS[C@]1(C2)C(=O)N3C [Compound of Example 5, (3 S, 10aR)―6―acetoxy―2,3―dihydro―3―(hydroxymethyl)― 2―methyl―10H―3,10a―epidithiopyrazino[1,2―a]indole―1, 4―dione]
IC50 [4, 7]: 74 ng/mL (≈ 0.202 µM) | IC50 ([5]; 72 h, P388, 3 days, MTT): 13 ng/mL (≈ 0.0355 µM)

CN1C(=O)[C@]23Cc4cccc(OCC#N)c4N2C(=O)[C@]1(CO)SS3 [Compound of Example 6, (3S, 10aR)―6―(cyanomethoxy)―2,3―dihydro―3― (hydroxymethyl)―2―methyl―10H-3,10a―a― epidithiopyrazino[1,2―a]indole―1,4―dione]
colon 26 IC 50 ([4]; colon 26, 3 days, MTT): 70 ng/mL | P388 IC50[ng/mL] ([5]; P388, 3 days, MTT): 5.8 ng/mL

COC(=O)COc1cccc2c1N1C(=O)[C@]3(CO)SS[C@]1(C2)C(=O)N3C [Compound of Example 7, (3S, 10aR)―2,3―dihydro―3― (hydroxymethyl)―6―[(methoxycarbonyl)methyloxy]―2― methyl―10H―3,10a―epidiopyrazino[1,2―a]indole―1,4― dione]
colon 26 IC 50 ([4]; colon 26, 3 days, MTT): 82 ng/mL

CN1C(=O)[C@]23CC4=CC=C[C@H](O)[C@H]4N2C(=O)[C@@]1(CO)SS3 [Gliotoxin, gliotoxin]
I. R. (%) ([1]; conc. 12.5 ug/mL): 28% | I. R. (%) ([1]; conc. 25 ug/mL): 66%

CO[C@@]12[C@H](COC(N)=O)C3=C(C(=O)C(C)=C(N)C3=O)N1C[C@@H]1N[C@@H]12 [M M C, Mitomycin C]
I. R. (%) ([1]; conc. 15 ug/mL): 34%

CC(=O)O[C@H]1C(=O)[C@@]2(C)[C@H]([C@H](OC(=O)c3ccccc3)[C@]3(O)C[C@H](OC(=O)[C@H](O)[C@@H](NC(=O)c4ccccc4)c4ccccc4)C(C)=C1C3(C)C)[C@]1(OC(C)=O)CO[C@@H]1C[C@@H]2O [T A X O L, Taxol]
I. R. (%) ([1]; conc. 100 ug/mL): 19%

CC[C@]1(O)C[C@@H]2CN(CCc3c([nH]c4ccccc34)[C@@](C(=O)OC)(c3cc4c(cc3OC)N(C)[C@H]3[C@@](O)(C(=O)OC)[C@H](OC(C)=O)[C@]5(CC)C=CCN6CC[C@]43[C@@H]65)C2)C1 [Vinblastine]
I. R. (%) ([1]; conc. 100 ug/mL): 20%
